Assay results from US10611771B2, “Pyrazolo [3,4-d] pyrimidine derivative” (WEST CHINA HOSPITAL, SICHUAN UNIVERSITY, priority 2016, dated 2020).
Values joined by “and” are separate entries in the source; they are usually repeats but may differ in a detail not shown here. Equal values may be shown once.

Columns and labels:
[1] = tested on: A549 cells; test: MTT detection method, inhibitory effect against A549 cells; type: cell-based
Description: (§1) MTT detection method was used, and MTT is a yellow compound and a dye accepting hydrogen ions, and can be used as the respiratory chain in mitochondria of viable cells. Under the action of succinate dehydrogenase and cytochrome C, the tetrazolium ring broke to form blue formanzan crystal, and the formation amount of formanzan crystal was only directly proportional to the viable counts. The formanzan crystal formed by reduction can dissolve in dimethyl sulfoxide (DMSO), and the optical density (OD) value can be determined at 490 nm using ELISA, to reflect the viable counts.
(§2) • Lung cancer cell lines: A549 and H1299. • Experimental materials: lung cancer cell lines, instruments and tools for cell culture, MTT, the compound mother liquid (10 mmol/L), and the positive control drug Src inhibitor pp1. 1. Specific Method • (3-1) Cell lines A549 and H1299 were recovered, and when the cells were in good conditions, namely cells grew to about 80% after one passage (i.e. the logarithmic growth phase), the cells were planked (96-well plate). • (3-2) Firstly, cells were collected, and the concentration of cell suspension was adjusted with counting chamber. Cells were seeded in 96-well plate at 1000˜10000 cells/well, and the detailed cell numbers in each well were dependent on the growth rate of different cells and the action time of drugs. A549 cells were seeded at 5000 cells, while H1299 cells were also seeded at 5000 cells, 200 μl for each well (100 μl cell suspension+100 μl drug dilution at different concentration gradient). The edge wells (36) were added 200 μl culture media (for prevention of edge effect). • (3-3) After planking and adding drugs, the plate was treated at 24 h, 48 h, and 72 h, and then for coloration, each well was added 200 μl culture media containing 20 μl MTT solution (5 mg/mL). The plate was continually cultured for 1˜4 hours, the incubation was stopped, and the culture supernatant fluid in each well was carefully absorbed. For suspension cells, the culture supernatant fluid in each well need be centrifuged before drawing. 150 μl DMSO was added to each well, and the plate was shaken on a shaking table for 15˜20 min, to allow the crystals to be completely dissolved. • (3-4) Colorimetry: The colorimetry was performed by ELISA, and the optical absorption value of each well was tested at a wavelength of 490 nm or 570 nm, and the result was recorded. • (3-5) Calculation Inhibition ratio=(the control−the drug)/the control×100% • IC50 (50% inhibitory concentration) can be calculated by spass software based on the inhibitory ratio at different concentration. II. Experimental Results • A549 cells were treated at 4 h, 24 h, 48 h, 72 h, and the drug dose was divided into the light concentration group (10 μm, 25 μm, 40 μm) and the high concentration group (50 μm, 80 μm, 100 μm), that were seeded at 6000 cells/well and 5000 cells/well, respectively, to carry out the experiment.

[2] = tested on: H1299 cells; test: MTT detection method, inhibitory effect against H1299 cells; type: cell-based
Description: as §1, §2
H1299 cells were seeded at 5000 cells/well, and after treatment for 4 h, 24 h, 48 h, and 72 h, the results were shown in Tables 5-9 and FIGS. 5-8: […]

For `CCCCn1nc(-c2ccc(OCCOCCOCCOCCOS(=O)(=O)c3ccc(C)cc3)cc2)c2c(N)ncnc21` [Compound 2, 2-(2-(2-(2-(4-(4-amino-1-n-butyl-1H-pyrazolo[3,4-d]pyrimidin-3-)phenoxy)ethoxy)ethoxy)ethoxy)ethyl 4-methylbenzenesulfonic Acid], the “The inhibitory ratio (%) for three parallel assays” value (“The inhibitory ratio (%)” below) ([1]; 4 h, 10 μm) was 25.00% and 30.31% and 29.06%, the “The mean inhibitory ratio (%)” value ([1]; 4 h, 10 μm) was 28.13% and the “The inhibitory ratio (%)” value ([1]; 4 h, 25 μm) was 14.38% and 17.19% and 13.44%. The “The mean inhibitory ratio (%)” value ([1]; 4 h, 25 μm) was 15.00%, the “The mean inhibitory ratio (%)” value ([1]; 4 h, 40 μm) was 14.17% and the “The inhibitory ratio (%)” value ([1]; 4 h, 50 μm) was 34.57%. For the same compound, the “The mean inhibitory ratio (%)” value ([1]; 4 h, 50 μm) was 34.57%, the “The inhibitory ratio (%)” value ([1]; 4 h, 80 μm) was 34.86% and 36.86% and 35.14% and the “The mean inhibitory ratio (%)” value ([1]; 4 h, 80 μm) was 35.62%. The “The inhibitory ratio (%)” value ([1]; 4 h, 100 μm) was 39.43% and 38.29% and 35.71%, the “The mean inhibitory ratio (%)” value ([1]; 4 h, 100 μm) was 37.81% and the “The inhibitory ratio (%)” value ([1]; 24 h, 10 μm) was 16.09% and 20.22% and 12.83%. For the same compound, the “The mean inhibitory ratio (%)” value ([1]; 24 h, 10 μm) was 16.38%, the “The inhibitory ratio (%)” value ([1]; 24 h, 25 μm) was 20.43% and 18.48% and 18.70% and the “The mean inhibitory ratio (%)” value ([1]; 24 h, 25 μm) was 19.20%. The “The inhibitory ratio (%)” value ([1]; 24 h, 40 μm) was 18.48% and 24.35% and 23.91%, the “The mean inhibitory ratio (%)” value ([1]; 24 h, 40 μm) was 22.25% and the “The inhibitory ratio (%)” value ([1]; 24 h, 50 μm) was 71.46% and 71.25% and 71.04%. For the same compound, the “The mean inhibitory ratio (%)” value ([1]; 24 h, 50 μm) was 71.25%, the “The inhibitory ratio (%)” value ([1]; 24 h, 80 μm) was 75.63% and 75.83% and 74.79% and the “The mean inhibitory ratio (%)” value ([1]; 24 h, 80 μm) was 75.42%. For the same compound, the “The inhibitory ratio (%)” value ([1]; 24 h, 100 μm) was 73.75% and 75.83% and 74.58%, the “The mean inhibitory ratio (%)” value ([1]; 24 h, 100 μm) was 74.72% and the “The inhibitory ratio (%)” value ([1]; 48 h, 10 μm) was 24.84% and 31.41% and 29.22%. The “The mean inhibitory ratio (%)” value ([1]; 48 h, 10 μm) was 28.49%, the “The inhibitory ratio (%)” value ([1]; 48 h, 25 μm) was 32.66% and 36.72% and 31.56% and the “The mean inhibitory ratio (%)” value ([1]; 48 h, 25 μm) was 33.65%. The “The inhibitory ratio (%)” value ([1]; 48 h, 40 μm) was 47.97% and 47.66% and 49.06%, the “The mean inhibitory ratio (%)” value ([1]; 48 h, 40 μm) was 48.23% and the “The inhibitory ratio (%)” value ([1]; 48 h, 50 μm) was 82.83% and 81.50% and 80.33%. The “The mean inhibitory ratio (%)” value ([1]; 48 h, 50 μm) was 81.56%, the “The inhibitory ratio (%)” value ([1]; 48 h, 80 μm) was 82.67% and 83.00% and 82.83% and the “The mean inhibitory ratio (%)” value ([1]; 48 h, 80 μm) was 82.83%. For the same compound, the “The inhibitory ratio (%)” value ([1]; 48 h, 100 μm) was 83.17% and 83.00% and 82.83%, the “The mean inhibitory ratio (%)” value ([1]; 48 h, 100 μm) was 83.00% and the “The inhibitory ratio (%)” value ([1]; 72 h, 10 μm) was 30.00% and 29.46%. The “The mean inhibitory ratio (%)” value ([1]; 72 h, 10 μm) was 29.64%, the “The inhibitory ratio (%)” value ([1]; 72 h, 25 μm) was 48.74% and 47.21% and 50.00% and the “The mean inhibitory ratio (%)” value ([1]; 72 h, 25 μm) was 48.65%. The “The inhibitory ratio (%)” value ([1]; 72 h, 40 μm) was 68.92% and 70.36% and 70.63%, the “The mean inhibitory ratio (%)” value ([1]; 72 h, 40 μm) was 69.97% and the “The inhibitory ratio (%)” value ([1]; 72 h, 50 μm) was 88.11% and 87.97% and 88.38%. For the same compound, the “The mean inhibitory ratio (%)” value ([1]; 72 h, 50 μm) was 88.15%, the “The inhibitory ratio (%)” value ([1]; 72 h, 80 μm) was 88.51% and 88.38% and the “The mean inhibitory ratio (%)” value ([1]; 72 h, 80 μm) was 88.47%. The “The inhibitory ratio (%)” value ([1]; 72 h, 100 μm) was 88.38% and 88.65% and 88.51%, the “The mean inhibitory ratio (%)” value ([1]; 72 h, 100 μm) was 88.51% and the “The inhibitory ratio (%)” value ([2]; 4 h, 10 μm) was 9% and 12% and 2%. The “The mean inhibitory ratio (%)” value ([2]; 4 h, 10 μm) was 7%, the “The inhibitory ratio (%)” value ([2]; 4 h, 25 μm) was 12% and 15% and the “The mean inhibitory ratio (%)” value ([2]; 4 h, 25 μm) was 13%. For the same compound, the “The inhibitory ratio (%)” value ([2]; 4 h, 40 μm) was 16% and 17%, the “The mean inhibitory ratio (%)” value ([2]; 4 h, 40 μm) was 16% and the “The inhibitory ratio (%)” value ([2]; 4 h, 50 μm) was 14% and 13%. The “The mean inhibitory ratio (%)” value ([2]; 4 h, 50 μm) was 14%, the “The inhibitory ratio (%)” value ([2]; 4 h, 80 μm) was 11% and 10% and the “The mean inhibitory ratio (%)” value ([2]; 4 h, 80 μm) was 11%. For the same compound, the “The inhibitory ratio (%)” value ([2]; 4 h, 100 μm) was 13% and 17% and 12%, the “The mean inhibitory ratio (%)” value ([2]; 4 h, 100 μm) was 14% and the “The inhibitory ratio (%)” value ([2]; 24 h, 10 μm) was 10% and 9% and 13%. The “The mean inhibitory ratio (%)” value ([2]; 24 h, 10 μm) was 11%, the “The inhibitory ratio (%)” value ([2]; 24 h, 25 μm) was 26% and 23% and 25% and the “The mean inhibitory ratio (%)” value ([2]; 24 h, 25 μm) was 25%. The “The inhibitory ratio (%)” value ([2]; 24 h, 40 μm) was 36% and 35% and 37%, the “The mean inhibitory ratio (%)” value ([2]; 24 h, 40 μm) was 36% and the “The inhibitory ratio (%)” value ([2]; 24 h, 50 μm) was 44% and 45% and 41%. The “The mean inhibitory ratio (%)” value ([2]; 24 h, 50 μm) was 43%, the “The inhibitory ratio (%)” value ([2]; 24 h, 80 μm) was 42% and 41% and the “The mean inhibitory ratio (%)” value ([2]; 24 h, 80 μm) was 42%. For the same compound, the “The inhibitory ratio (%)” value ([2]; 24 h, 100 μm) was 40%, the “The mean inhibitory ratio (%)” value ([2]; 24 h, 100 μm) was 40% and the “The inhibitory ratio (%)” value ([2]; 48 h, 10 μm) was 16% and 20% and 21%. For the same compound, the “The mean inhibitory ratio (%)” value ([2]; 48 h, 10 μm) was 19%, the “The inhibitory ratio (%)” value ([2]; 48 h, 25 μm) was 37% and 36% and the “The mean inhibitory ratio (%)” value ([2]; 48 h, 25 μm) was 37%. The “The inhibitory ratio (%)” value ([2]; 48 h, 40 μm) was 57%, the “The mean inhibitory ratio (%)” value ([2]; 48 h, 40 μm) was 57% and the “The inhibitory ratio (%)” value ([2]; 48 h, 50 μm) was 61%. For the same compound, the “The mean inhibitory ratio (%)” value ([2]; 48 h, 50 μm) was 61%, the “The inhibitory ratio (%)” value ([2]; 48 h, 80 μm) was 64% and 63% and 62% and the “The mean inhibitory ratio (%)” value ([2]; 48 h, 80 μm) was 63%. The “The inhibitory ratio (%)” value ([2]; 48 h, 100 μm) was 65% and 64% and 63%, the “The mean inhibitory ratio (%)” value ([2]; 48 h, 100 μm) was 64% and the “The inhibitory ratio (%)” value ([2]; 72 h, 10 μm) was 28% and 24% and 27%. For the same compound, the “The mean inhibitory ratio (%)” value ([2]; 72 h, 10 μm) was 26%, the “The inhibitory ratio (%)” value ([2]; 72 h, 25 μm) was 44% and 43% and 42% and the “The mean inhibitory ratio (%)” value ([2]; 72 h, 25 μm) was 43%. For the same compound, the “The inhibitory ratio (%)” value ([2]; 72 h, 40 μm) was 65% and 64%, the “The mean inhibitory ratio (%)” value ([2]; 72 h, 40 μm) was 65% and the “The inhibitory ratio (%)” value ([2]; 72 h, 50 μm) was 73% and 74%. For the same compound, the “The mean inhibitory ratio (%)” value ([2]; 72 h, 50 μm) was 74%, the “The inhibitory ratio (%)” value ([2]; 72 h, 80 μm) was 80% and 78% and the “The mean inhibitory ratio (%)” value ([2]; 72 h, 80 μm) was 80%. For the same compound, the “The inhibitory ratio (%)” value ([2]; 72 h, 100 μm) was 84% and 83% and 81% and the “The mean inhibitory ratio (%)” value ([2]; 72 h, 100 μm) was 83%.
